These results are taken from article PMC11878344 (Angewandte Chemie (International Ed. in English), 2025).

Where two headings read alike, the source gives them in different places.

The target in one data set is T1, mouse MAGL (Mus musculus, UniProt O35678).
T1 sequence (O35678 1-303): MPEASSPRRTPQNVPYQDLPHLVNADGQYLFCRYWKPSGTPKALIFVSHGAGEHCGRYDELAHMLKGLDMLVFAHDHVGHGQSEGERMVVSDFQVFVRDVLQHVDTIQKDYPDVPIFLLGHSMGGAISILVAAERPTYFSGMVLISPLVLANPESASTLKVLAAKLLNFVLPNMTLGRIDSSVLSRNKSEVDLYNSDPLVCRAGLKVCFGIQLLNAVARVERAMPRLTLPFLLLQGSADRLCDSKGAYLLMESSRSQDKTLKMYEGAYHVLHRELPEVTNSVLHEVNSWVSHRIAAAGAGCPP
Kind of data set: In vitro MAGL inhibition assay (2-AG hydrolysis followed by mass spectrometry). The format is biochemical. On the procedure:
(§1) 4. Experimental Details of Biochemical Assays and Crystal Structure
(§2) In Vitro MAGL Inhibition Assay
(§3) Compounds were profiled for MAGL inhibitory activity by determining the enzymatic activity by following the hydrolysis of the natural substrate 2-arachidonoylglycerol (2-AG), resulting in arachidonic acid, which can be followed by mass spectrometry. The 2-AG assay was carried out in 384 well assay plates (PP, Greiner Cat# 784201) in a total volume of 20 µL. Compound dilutions were made in 100% DMSO (VWR Chemicals 23500.297) in a polypropylene plate in 3-fold dilution steps to give a final concentration range in the assay from 12.5 µM to 0.8 pM. 0.25µL compound dilutions (100% DMSO) were added to 9 µL MAGL in assay buffer (50 mM TRIS (GIBCO, 15567-027), 1 mM EDTA (Fluka, 03690-100 mL), 0.01% (v/v) Tween. After shaking, the plate was incubated for 15 min at RT. To start the reaction, 10 µL 2-arachidonoylglycerol in assay buffer was added. The final concentrations in the assay were 50 pM MAGL and 8 µM 2-arachidonoylglyerol. After shaking and 30 min incubation at RT, the reaction was quenched by the addition of 40µL of ACN containing 4 µM of d8-arachidonic acid. The amount of arachidonic acid was traced by an online SPE system (Agilent Rapidfire) coupled to a triple quadrupole mass spectrometer (Agilent 6460). A C18 SPE cartridge (G9205A) was used in an ACN/water liquid setup. The mass spectrometer was operated in negative electrospray mode following the mass transitions 303.1 → 259.1 for arachidonic acid and 311.1 → 267.0 for d8-arachidonic acid. The activity of the compounds was calculated based on the ratio of intensities [arachidonic acid / d8- […]
(§4) This assay was performed as first described before.[39] […]

In a further data set the target is T2, human MAGL (Homo sapiens, UniProt Q99685).
T2 sequence (Q99685 1-303): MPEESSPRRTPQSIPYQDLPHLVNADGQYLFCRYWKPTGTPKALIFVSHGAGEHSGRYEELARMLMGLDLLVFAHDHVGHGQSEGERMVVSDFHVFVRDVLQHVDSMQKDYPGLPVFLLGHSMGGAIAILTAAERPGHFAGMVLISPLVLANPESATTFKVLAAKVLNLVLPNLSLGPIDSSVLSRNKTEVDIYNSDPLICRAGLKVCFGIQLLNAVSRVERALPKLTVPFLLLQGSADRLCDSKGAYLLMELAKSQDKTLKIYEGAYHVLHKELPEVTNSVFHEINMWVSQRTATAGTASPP
The data set is described as above. The format is biochemical. On the procedure: as §1, §2, §3, §4

The target in data set [1] is T3, NanoLuc luciferase MAGL fusion protein in HEK293A cells (Homo sapiens, UniProt Q99685).
T3 construct: expressed in transfected cells
T3 sequence (Q99685 1-303): T2 sequence (Q99685 1-303)
Nature of the data set: Cellular MAGL NanoBRET target engagement assay. The format is cell-based. On the procedure: We, therefore, confirmed cellular MAGL target engagement in a nanoBRET assay using live HEK293 cells.[39] […] To overcome the low cellular potency of 4, we exploited the modular construction principle to modulate unfavorable physicochemical properties and investigated less polar, privileged head groups[23, 33, 40] (Supporting Information Table S4). […]
This assay was performed as first described before.[39]
Compounds were profiled by a novel cellular MAGL NanoBRET™ Target Engagement assay, which measures the apparent affinity of test compounds by competitive displacement of a Roche-developed Tracer (WO2021058443, Example 21)[21], reversibly bound to a NanoLuc® luciferase MAGL fusion protein in cells.
A HEK293A stable cell line expressing NanoLuc_MAGL was established at Roche and assigned as HEK293A_NanoLuc_MAGL clone #43. A fixed concentration of tracer is added to cells expressing the NanoLuc®_MAGL fusion protein to generate a BRET reporter complex. The introduction of competing compounds results in a dose-dependent decrease in NanoBRET™ energy transfer, which allows quantification of the intracellular affinity of the target protein for the […]
HEK293A_NanoLuc_MAGL clone #43 cells were cultured in DMEM (Gibco 31966) with 10% FBS and 800 ug/ml G418. The NanoBRET assay was performed by seeding 5000 cells/well in Costar low-volume white 384-well plate in assay buffer (1% FBS in HBSS), followed by adding 50 nM final concentration of tracer and serial dilutions of test compounds. After 2 hours of incubation, Nanoluciferase substrates and extracellular inhibitors were added following the manufacturer's protocol (Promega, #N2520), and the NanoBRET signaling were quantified with the Paradigm
For orientation: In BRET a luciferase serves as donor, and the signal depends on an acceptor being close.

The target in a further data set is Cyno MAGL (Macaca fascicularis, UniProt A0A2K5V664). Nature of the data set: In vitro MAGL inhibition assay. As to conditions: Supporting Information Table S4. The format is biochemical, cynomolgus monkey. Here is the method:
as §1, §2
Compounds were profiled for MAGL inhibitory activity by determining the enzymatic activity by following the hydrolysis of the natural substrate 2-arachidonoylglycerol (2-AG), resulting in arachidonic acid, which can be followed by mass spectrometry. The 2-AG assay was carried out in 384 well assay plates (PP, Greiner Cat# 784201) in a total volume of 20 µL. Compound dilutions were made in 100% DMSO (VWR Chemicals 23500.297) in a polypropylene plate in 3-fold dilution steps to give a final concentration range in the assay from 12.5 µM to 0.8 pM. […] The activity of the compounds was calculated based on the ratio of intensities [arachidonic acid / d8- […]

The nature of data set [2]: Fluorescence excitation/absorption and emission maxima. The format is physicochemical. As to conditions: PBS pH 7.4. The text has this: Figure S8. Fluorescence excitation and emission spectra of the utilized fluorescent reporters in PBS pH 7.4. Spectra l differences between probes carrying the same fluorophore were […]
Table S6. Fluorescence excitation, emission maxima, and Stokes-shift in PBS pH 7.4 for the used fluorophores, respectively. difference s between probes with the same fluorophore were […]
λmax Excitation [nm] λmax Emission [nm] Stokes-shift [nm]
(1 picture or pasted object on this page, not shown here)

The next data set relates to MAGL. On the set-up: method as in PMID 35089028, PMID 34764251, PMID 34328319, PMID 29498843. The following applies: known MAGL ligands of Figure 1; cited from earlier work.
Where [3] appears, read: Table 1, n=1 to 3, read-out: mMAGL IC50.
[4] abbreviates: Table 1, n=1 to 3, read-out: hMAGL IC50.
[5] abbreviates: Table 1, transfected HEK293 cells, n=1 to 3, read-out: HEK293 nanoBRET IC50.
[6] abbreviates: Supporting Information Tables S1-S5, read-out: IC50 mMAGL.
Where [7] appears, read: Supporting Information Tables S1-S5, read-out: IC50 hMAGL.
Where [8] appears, read: Table 2, mean of three independent measurements ± SD, read-out: mMAGL IC50±SD.
Setting [9] is: Table 2, mean of three independent measurements ± SD, read-out: hMAGL IC50±SD.
Where [10] appears, read: Table 2, mean of three independent measurements ± SD, read-out: HEK 293 nanoBRET IC50±SD.

Chain of Cyno MAGL (A0A2K5V664 entry or part of it): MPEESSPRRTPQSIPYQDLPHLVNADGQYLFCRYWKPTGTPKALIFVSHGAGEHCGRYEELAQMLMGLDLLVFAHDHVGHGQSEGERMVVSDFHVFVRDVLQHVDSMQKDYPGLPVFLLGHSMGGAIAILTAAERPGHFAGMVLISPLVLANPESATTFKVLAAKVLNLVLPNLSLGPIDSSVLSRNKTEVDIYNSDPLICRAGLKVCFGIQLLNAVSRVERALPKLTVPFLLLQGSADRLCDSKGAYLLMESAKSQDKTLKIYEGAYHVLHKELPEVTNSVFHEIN

Consider `O=C1CO[C@H]2CCN(C(=O)N3CC(COCc4ccccc4)C3)C[C@H]2N1` [Compound 1], for which the results for the IC50 (at mouse MAGL (setting [3]); at human MAGL (setting [4]); in data set [1] (setting [5])) were 526 nM, 379 nM and > 10000 nM, respectively.
As to `O=C1CO[C@H]2CCN(C(=O)N3CC(COCc4cccc(OCCNC(=O)OCc5ccccc5)c4)C3)C[C@H]2N1` [Compound 2], the IC50 (commonly the concentration that inhibits the measured activity by half) on mouse MAGL (setting [6]) worked out at 97 nM; at mouse MAGL (setting [3]) it was 97.4 nM; at human MAGL (setting [7]) it was 31 nM; on human MAGL (setting [4]) it was 30.8 nM; in data set [1] (setting [5]) it was 406 nM.
The matching figures for `O=C1CO[C@H]2CCN(C(=O)N3CC(COCc4ccccc4OCCNC(=O)OCc4ccccc4)C3)C[C@H]2N1` [Compound 3]: 5 nM, 5.41 nM, 2 nM, 2.14 nM and 141 nM.
As for `O=C(NCCOc1ccccc1COCC1CN(C(=O)N2CC3(COC(=O)N3)C2)C1)OCc1ccccc1` [Compound 5], the IC50 amounted to 0.59 nM on mouse MAGL (setting [3]), 0.29 nM at human MAGL (setting [4]), 0.094 nM at Cyno MAGL and 61 nM in data set [1] (setting [5]).
As for `O=C1NC2(CO1)CN(C(=O)N1CC(COCc3ccccc3OCCNc3ccc([N+](=O)[O-])c4nonc34)C1)C2` [Compound 6], the IC50 came to 1.03 nM on mouse MAGL (setting [3]), 0.72 nM on human MAGL (setting [4]) and 318 nM in data set [1] (setting [5]).
The matching figures for `O=C(NCCOc1ccccc1COCC1CN(C(=O)OC(C(F)(F)F)C(F)(F)F)C1)OCc1ccccc1` [Compound 7]: 0.85 nM, 0.65 nM and 222 nM.
`O=C1NC2(CO1)CN(C(=O)N1CC3(CC(Cc4ccccc4OCCNc4ccc([N+](=O)[O-])c5c4NON5)C3)C1)C2` [Compound 8]: the IC50 was 0.138 nM at mouse MAGL (setting [6]); 0.11 nM on mouse MAGL (setting [3]); 0.12 ± 0.04 nM on mouse MAGL (setting [8]); 0.124 nM at human MAGL (setting [7]); 0.09 nM at human MAGL (setting [4]); 0.09 ± 0.03 nM on human MAGL (setting [9]). The IC50 came to 307 nM in data set [1] (setting [5]) and 308 ± 114 nM in data set [1] (setting [10]). Moreover, in data set [2], the “λmax Em (fluorescence emission maximum)” value came out at 554 nm. Further, the “λmax Ex (fluorescence excitation maximum)” value in data set [2] is 479 nm.
With `C#CCCCC(=O)NCCOc1ccccc1CC1CC2(C1)CN(C(=O)OC(C(F)(F)F)C(F)(F)F)C2` [Compound 13], the IC50 on mouse MAGL (setting [8]) was determined as 0.13 ± 0.05 nM; at human MAGL (setting [9]), 0.14 ± 0.04 nM; in data set [1] (setting [10]), 99 ± 23 nM.
For `O=C(NCCCCCOc1ccccc1CC1CC2(C1)CN(C(=O)O[C@H](CO)C(F)(F)F)C2)O[C@H]1CC/C=C/CCC1` [Compound 14], the IC50 was found to be 0.42 ± 0.17 nM at mouse MAGL (setting [8]), 0.31 ± 0.13 nM on human MAGL (setting [9]) and 1250 ± 507 nM in data set [1] (setting [10]).
For `Cc1ccc(C(c2ccccc2)C2CCN(C(=O)N3CCC4OCC(=O)NC4C3)CC2)cc1` (stereo not drawn) [Compound 85], in the data set on MAGL, the IC50 was 0.1 nM.
Regarding `O=C1CO[C@H]2CCN(C(=O)N3CC(OCc4ccccc4OCCNC(=O)OCc4ccccc4)C3)C[C@H]2N1` [Compound S1], at human MAGL (setting [7]), the IC50 turned out to be 70 nM.
With `O=C1CO[C@H]2CCN(C(=O)N3CC4(CC(OCc5ccccc5OCCNC(=O)OCc5ccccc5)C4)C3)C[C@H]2N1` [Compound S3], the IC50 was 38 nM on mouse MAGL (setting [6]) and 11 nM at human MAGL (setting [7]).
On the same counts, the results for `O=C1CO[C@H]2CCN(C(=O)N3CC4(CCC(OCc5ccccc5OCCNC(=O)OCc5ccccc5)CC4)C3)C[C@H]2N1` [Compound S4] are 38 nM and 15 nM.
The matching figures for `O=C1CO[C@H]2CCN(C(=O)N3CCC4(CC3)CC(OCc3ccccc3OCCNC(=O)OCc3ccccc3)C4)C[C@H]2N1` [Compound S5]: 21 nM and 7 nM.
For the molecule `O=C1CO[C@H]2CCN(C(=O)N3C[C@@H]4C(COCc5ccccc5OCCNC(=O)OCc5ccccc5)[C@@H]4C3)C[C@H]2N1` (stereo partly drawn) [Compound S6], the figures for the IC50 at mouse MAGL (setting [6]) and on human MAGL (setting [7]) were 315 nM and 97 nM, respectively.
The matching figures for `O=C1CO[C@H]2CCN(C(=O)N3CC(COCc4ccccc4OCCCNC(=O)OCc4ccccc4)C3)C[C@H]2N1` [Compound S7]: 7 nM and 3 nM.
Regarding `O=C1CO[C@H]2CCN(C(=O)N3CC(COCc4ccccc4OCCCCCNC(=O)OCc4ccccc4)C3)C[C@H]2N1` [Compound S8], the figures for the IC50 on mouse MAGL (setting [6]) and at human MAGL (setting [7]) were 144 nM and 46 nM, respectively.
The matching figures for `O=C1CO[C@H]2CCN(C(=O)N3CC(OCc4cccc(OCCNC(=O)OCc5ccccc5)c4)C3)C[C@H]2N1` [Compound S9]: 38 nM and 44 nM.
The matching figures for `O=C1CO[C@H]2CCN(C(=O)N3CC4(CC(OCc5cccc(OCCNC(=O)OCc6ccccc6)c5)C4)C3)C[C@H]2N1` [Compound S11]: 76 nM and 28 nM.
The matching figures for `O=C1COc2ccc(C(=O)N3CC(COCc4ccccc4OCCNC(=O)OCc4ccccc4)C3)cc2N1` [Compound S18]: 35 nM and 7.5 nM.
As to `O=C(NCCOc1ccccc1COCC1CN(C(=O)CC[C@@H]2COC(=O)N2)C1)OCc1ccccc1` [Compound S19], the IC50 at mouse MAGL (setting [6]) came to 66 nM; at human MAGL (setting [7]), 9.2 nM.
The matching figures for `CN1/C(=C\C=C\C2=[N+](CCCCCC(=O)NCCOc3ccccc3CC3CC4(C3)CN(C(=O)N3CC5(COC(=O)N5)C3)C4)c3ccccc3C2(C)C)C(C)(C)c2ccccc21` [Compound S21]: 0.119 nM and 0.122 nM.
